According to PMC6327980 (Journal of Enzyme Inhibition and Medicinal Chemistry, 2018):
pKi: −log10 of the molar value. Read-outs that look alike come from different tables or passages of the source.

Legend:
BpsCAβ = biological target: T1, BpsCAβ (Burkholderia pseudomallei, UniProt Q63Y17); format: biochemical; settings: read-out: BpsCAβ
T1 construct: gene BPSL0372

VchCAα = biological target: T2, VchCAα (Vibrio cholerae, UniProt Q9KMP6); test: biochemical
T2 construct: gene VC_A0274

BpsCAγ = biological target: T3, BpsCAγ; format: biochemical, Burkholderia pseudomallei
T3 construct: gene BpsCAgamma

VchCAβ = biological target: T4, VchCAβ (Vibrio cholerae, UniProt Q9KUD6); test: biochemical
T4 construct: gene VC_0586
T4 sequence (Q9KUD6 1-222): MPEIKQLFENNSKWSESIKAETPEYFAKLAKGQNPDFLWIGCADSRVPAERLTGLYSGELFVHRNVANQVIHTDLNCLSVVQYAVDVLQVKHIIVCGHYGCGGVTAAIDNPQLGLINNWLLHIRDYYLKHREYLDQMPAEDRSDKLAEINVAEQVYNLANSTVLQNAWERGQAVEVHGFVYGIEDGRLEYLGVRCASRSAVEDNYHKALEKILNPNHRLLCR

T2 sequence (Q9KMP6 21-239 limits assumed): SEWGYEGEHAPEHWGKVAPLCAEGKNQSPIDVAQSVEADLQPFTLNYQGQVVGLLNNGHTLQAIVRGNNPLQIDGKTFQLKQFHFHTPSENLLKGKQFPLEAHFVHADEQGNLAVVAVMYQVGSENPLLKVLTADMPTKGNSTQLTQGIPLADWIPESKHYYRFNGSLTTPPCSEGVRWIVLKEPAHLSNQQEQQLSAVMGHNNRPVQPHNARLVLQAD
T1 sequence (Q63Y17 1-256): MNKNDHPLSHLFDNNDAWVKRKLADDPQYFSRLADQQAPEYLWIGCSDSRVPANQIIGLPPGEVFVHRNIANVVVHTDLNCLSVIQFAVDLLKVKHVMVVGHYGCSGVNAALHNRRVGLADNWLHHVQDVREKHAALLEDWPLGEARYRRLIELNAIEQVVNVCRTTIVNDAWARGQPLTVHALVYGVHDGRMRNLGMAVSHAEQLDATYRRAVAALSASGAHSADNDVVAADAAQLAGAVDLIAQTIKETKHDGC

Row | Structure (SMILES) | pKi (BpsCAβ) | pKi (VchCAα) | pKi (BpsCAγ; read-out: VchCAγ) | pKi (VchCAβ) | pKi (BpsCAγ; read-out: BpsCAγ)
1 | NS(=O)(=O)c1ccc(-c2ncc(C[Te]c3ccccc3)[se]2)cc1 [9a] | 6.04 | 6.03 | 5.05 | 5.11 | –
2 | Cc1ccc([Te]Cc2cnc(-c3ccc(S(N)(=O)=O)cc3)[se]2)cc1 [9b] | 6.49 | 6.33 | 5.12 | 5.11 | –
3 | COc1ccc([Te]Cc2cnc(-c3ccc(S(N)(=O)=O)cc3)[se]2)cc1 [9c] | – | 6.11 | – | 5.04 | –
4 | NS(=O)(=O)c1ccc(-c2ncc(C[Se]c3ccccc3)[se]2)cc1 [10a] | – | 6.06 | – | 5.05 | –
5 | Cc1ccc([Se]Cc2cnc(-c3ccc(S(N)(=O)=O)cc3)[se]2)cc1 [10b] | – | 6.34 | – | 5.07 | –
6 | COc1ccc([Se]Cc2cnc(-c3ccc(S(N)(=O)=O)cc3)[se]2)cc1 [10c] | – | 6.04 | – | 5.17 | –
7 | N=C(N)SCc1cnc(-c2ccc(S(N)(=O)=O)cc2)[se]1 [compound 11, 11] | – | 6.36 | – | 5.04 | 5.18
